Experimental data from PubChem BioAssay AID1918994 (Molecular Pharmacology Branch, DTP, NCI, 2023).

Tested on: 292921-168-R-J2-PDC complex spheroid growth
Experiment: Anticancer human tumor 292921-168-R-J2-PDC patient-derived pancreatic carcinoma cell line growth inhibition [AhR]
Conditions: for IC50: curve of first compound; for viability, T/C: stronger effect = lower value; active means viability on the fitted dose curve at most 10% of control; inactive means the rest
Method in brief: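 Agents were dosed in half-log steps down from roughly clinical Cmax, or from 10 microM where Cmax was unknown, alone and with AhR antagonists. Read-out: percent test/control growth of tumor spheroids containing HUVEC and MSC stromal cells.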

[1] = second compound 0.1 µM, first compound 0.000949 µM
[2] = second compound 0.1 µM, first compound 0.003 µM
[3] = second compound 0.1 µM, first compound 0.00949 µM
[4] = second compound 0.1 µM, first compound 0.03 µM
[5] = second compound 0.1 µM, first compound 0.0949 µM
[6] = second compound 0.1 µM, first compound 0.3 µM
[7] = second compound 0.316 µM, first compound 0.000949 µM
[8] = second compound 0.316 µM, first compound 0.003 µM
[9] = second compound 0.316 µM, first compound 0.00949 µM
[10] = second compound 0.316 µM, first compound 0.03 µM
[11] = second compound 0.316 µM, first compound 0.0949 µM
[12] = second compound 0.316 µM, first compound 0.3 µM
[13] = second compound 1 µM, first compound 0.000949 µM
[14] = second compound 1 µM, first compound 0.003 µM
[15] = second compound 1 µM, first compound 0.00949 µM
[16] = second compound 1 µM, first compound 0.03 µM
[17] = second compound 1 µM, first compound 0.0949 µM
[18] = second compound 1 µM, first compound 0.3 µM
[19] = second compound 3.16 µM, first compound 0.000949 µM
[20] = second compound 3.16 µM, first compound 0.003 µM
[21] = second compound 3.16 µM, first compound 0.00949 µM
[22] = second compound 3.16 µM, first compound 0.03 µM
[23] = second compound 3.16 µM, first compound 0.0949 µM
[24] = second compound 3.16 µM, first compound 0.3 µM
[25] = second compound 10 µM, first compound 0.000949 µM
[26] = second compound 10 µM, first compound 0.003 µM
[27] = second compound 10 µM, first compound 0.00949 µM
[28] = second compound 10 µM, first compound 0.03 µM
[29] = second compound 10 µM, first compound 0.0949 µM
[30] = second compound 10 µM, first compound 0.3 µM
[31] = second compound 0.1 µM, first compound 0.0316 µM
[32] = second compound 0.1 µM, first compound 0.1 µM
[33] = second compound 0.1 µM, first compound 0.316 µM
[34] = second compound 0.1 µM, first compound 1 µM
[35] = second compound 0.1 µM, first compound 3.16 µM
[36] = second compound 0.1 µM, first compound 10 µM
[37] = second compound 0.316 µM, first compound 0.0316 µM
[38] = second compound 0.316 µM, first compound 0.1 µM
[39] = second compound 0.316 µM, first compound 0.316 µM
[40] = second compound 0.316 µM, first compound 1 µM
[41] = second compound 0.316 µM, first compound 3.16 µM
[42] = second compound 0.316 µM, first compound 10 µM
[43] = second compound 1 µM, first compound 0.0316 µM
[44] = second compound 1 µM, first compound 0.1 µM
[45] = second compound 1 µM, first compound 0.316 µM
[46] = second compound 1 µM, first compound 1 µM
[47] = second compound 1 µM, first compound 3.16 µM
[48] = second compound 1 µM, first compound 10 µM
[49] = second compound 3.16 µM, first compound 0.0316 µM
[50] = second compound 3.16 µM, first compound 0.1 µM
[51] = second compound 3.16 µM, first compound 0.316 µM
[52] = second compound 3.16 µM, first compound 1 µM
[53] = second compound 3.16 µM, first compound 3.16 µM
[54] = second compound 3.16 µM, first compound 10 µM
[55] = second compound 10 µM, first compound 0.0316 µM
[56] = second compound 10 µM, first compound 0.1 µM
[57] = second compound 10 µM, first compound 0.316 µM
[58] = second compound 10 µM, first compound 1 µM
[59] = second compound 10 µM, first compound 3.16 µM
[60] = second compound 10 µM, first compound 10 µM
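Further: spheroids exposed to compounds for seven days after three days of growth.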

CC(C)CC(NC(=O)C(Cc1ccccc1)NC(=O)c1cnccn1)B(O)O (stereo not given) + Cc1cncc(-c2nc(NCCc3c[nH]c4ccccc34)c3ncn(C(C)C)c3n2)c1
inactive: viability, T/C [1] 92.8% | viability, T/C [2] 109% | viability, T/C [3] 51.3% | viability, T/C [7] 89.7% | viability, T/C [8] 99.3% | viability, T/C [9] 51.5% | viability, T/C [13] 82.3% | viability, T/C [14] 95.5% | viability, T/C [15] 48.7% | viability, T/C [19] 62.3% | viability, T/C [20] 77% | viability, T/C [21] 41.6% | viability, T/C [25] 43.5% | viability, T/C [26] 53.7% | viability, T/C [27] 19.6%
9.77 nM: IC50 (second compound 0.1 µM)
active: viability, T/C [4] 3.12% | viability, T/C [5] 0.7% | viability, T/C [6] 0.59% | viability, T/C [10] 3.84% | viability, T/C [11] 0.68% | viability, T/C [12] 0.47% | viability, T/C [16] 3.35% | viability, T/C [17] 0.56% | viability, T/C [18] 0.95% | viability, T/C [22] 1.9% | viability, T/C [23] 0.89% | viability, T/C [24] 1.05% | viability, T/C [28] 0.58% | viability, T/C [29] 0.63% | viability, T/C [30] 0.51%
9.81 nM: IC50 (second compound 0.316 µM)
9.14 nM: IC50 (second compound 1 µM)
< 0.949 nM: IC50 (second compound 10 µM)
6.72 nM: IC50 (second compound 3.16 µM)

CCc1c2c(nc3ccc(O)cc13)-c1cc3c(c(=O)n1C2)COC(=O)[C@]3(O)CC + Cc1cncc(-c2nc(NCCc3c[nH]c4ccccc34)c3ncn(C(C)C)c3n2)c1
1.92 nM: IC50 (second compound 1 µM)
active: viability, T/C [4] 11.1% | viability, T/C [5] 5.94% | viability, T/C [6] 3.28% | viability, T/C [10] 11.7% | viability, T/C [11] 5.74% | viability, T/C [12] 3.22% | viability, T/C [17] 6.94% | viability, T/C [18] 4.02% | viability, T/C [23] 6.69% | viability, T/C [24] 3.97% | viability, T/C [29] 9.49% | viability, T/C [30] 6.16%
inactive: viability, T/C [1] 62.5% | viability, T/C [2] 50.5% | viability, T/C [3] 22.7% | viability, T/C [7] 64.3% | viability, T/C [8] 50.4% | viability, T/C [9] 23.2% | viability, T/C [13] 57.6% | viability, T/C [14] 45.8% | viability, T/C [15] 22.5% | viability, T/C [16] 11.6% | viability, T/C [19] 44.6% | viability, T/C [20] 35.2% | viability, T/C [21] 19.6% | viability, T/C [22] 11.1% | viability, T/C [25] 36.7% | viability, T/C [26] 28.9% | viability, T/C [27] 21.7% | viability, T/C [28] 14.2%
2.91 nM: IC50 (second compound 0.1 µM)
2.89 nM: IC50 (second compound 0.316 µM)
< 0.949 nM: IC50 (second compound 3.16 µM) | IC50 (second compound 10 µM)

COc1cc(Nc2ncc3c(n2)-c2ccc(Cl)cc2C(c2c(F)cccc2OC)=NC3)ccc1C(=O)O + Cc1cncc(-c2nc(NCCc3c[nH]c4ccccc34)c3ncn(C(C)C)c3n2)c1
inactive: viability, T/C [31] 50.6% | viability, T/C [32] 45% | viability, T/C [33] 50% | viability, T/C [34] 45.6% | viability, T/C [35] 46.1% | viability, T/C [36] 33.5% | viability, T/C [37] 49.9% | viability, T/C [38] 43.3% | viability, T/C [39] 52% | viability, T/C [40] 45.9% | viability, T/C [41] 46.5% | viability, T/C [42] 33.2% | viability, T/C [43] 46.7% | viability, T/C [44] 40.3% | viability, T/C [45] 47.8% | viability, T/C [46] 44.3% | viability, T/C [47] 41.9% | viability, T/C [48] 30.4% | viability, T/C [49] 44.6% | viability, T/C [50] 38.7% | viability, T/C [51] 42.4% | viability, T/C [52] 39.3% | viability, T/C [53] 35.5% | viability, T/C [54] 28% | viability, T/C [55] 40.4% | viability, T/C [56] 35% | viability, T/C [57] 38.5% | viability, T/C [58] 35.4% | viability, T/C [59] 32.4% | viability, T/C [60] 26.3%
< 31.6 nM: IC50 (second compound 0.1 µM) | IC50 (second compound 0.316 µM) | IC50 (second compound 1 µM) | IC50 (second compound 3.16 µM) | IC50 (second compound 10 µM)

Nc1ccccc1NC(=O)c1ccc(CNC(=O)OCc2cccnc2)cc1 + Cc1cncc(-c2nc(NCCc3c[nH]c4ccccc34)c3ncn(C(C)C)c3n2)c1
inactive: viability, T/C [31] 75.2% | viability, T/C [32] 63.8% | viability, T/C [33] 48.1% | viability, T/C [34] 40.9% | viability, T/C [35] 27.9% | viability, T/C [36] 13.4% | viability, T/C [37] 68.2% | viability, T/C [38] 57% | viability, T/C [39] 49.7% | viability, T/C [40] 33.6% | viability, T/C [41] 25.7% | viability, T/C [42] 11.5% | viability, T/C [43] 58.4% | viability, T/C [44] 60.7% | viability, T/C [45] 45.7% | viability, T/C [46] 35.9% | viability, T/C [47] 22.9% | viability, T/C [48] 11.9% | viability, T/C [49] 43.5% | viability, T/C [50] 47.4% | viability, T/C [51] 39.3% | viability, T/C [52] 30.5% | viability, T/C [53] 17.2% | viability, T/C [54] 10.9% | viability, T/C [55] 27.8% | viability, T/C [56] 27.9% | viability, T/C [57] 22.6% | viability, T/C [58] 22.4% | viability, T/C [59] 15.4% | viability, T/C [60] 7.52%
251 nM: IC50 (second compound 1 µM)
351 nM: IC50 (second compound 0.1 µM)
242 nM: IC50 (second compound 0.316 µM)
< 31.6 nM: IC50 (second compound 3.16 µM) | IC50 (second compound 10 µM)

O=C(C=Cc1cccc(S(=O)(=O)Nc2ccccc2)c1)NO + Cc1cncc(-c2nc(NCCc3c[nH]c4ccccc34)c3ncn(C(C)C)c3n2)c1
460 nM: IC50 (second compound 0.316 µM)
374 nM: IC50 (second compound 0.1 µM)
inactive: viability, T/C [31] 76% | viability, T/C [32] 59.6% | viability, T/C [33] 46.1% | viability, T/C [34] 41% | viability, T/C [35] 36% | viability, T/C [36] 3.84% | viability, T/C [37] 69.9% | viability, T/C [38] 61.4% | viability, T/C [39] 50.9% | viability, T/C [40] 39.9% | viability, T/C [41] 33.4% | viability, T/C [43] 55.3% | viability, T/C [44] 59.7% | viability, T/C [45] 49.6% | viability, T/C [46] 35.4% | viability, T/C [47] 30.5% | viability, T/C [49] 46.3% | viability, T/C [50] 46.6% | viability, T/C [51] 46% | viability, T/C [52] 31.9% | viability, T/C [53] 31.7% | viability, T/C [55] 32.9% | viability, T/C [56] 34.2% | viability, T/C [57] 30.1% | viability, T/C [58] 29% | viability, T/C [59] 26.6% | viability, T/C [60] 6.63%
280 nM: IC50 (second compound 1 µM)
< 31.6 nM: IC50 (second compound 3.16 µM) | IC50 (second compound 10 µM)
active: viability, T/C [42] 3.8% | viability, T/C [48] 4.08% | viability, T/C [54] 4.11%

O=C(c1cc(Cc2n[nH]c(=O)c3ccccc23)ccc1F)N1CCN(C(=O)C2CC2)CC1 + Cc1cncc(-c2nc(NCCc3c[nH]c4ccccc34)c3ncn(C(C)C)c3n2)c1
> 10000 nM: IC50 (second compound 0.1 µM) | IC50 (second compound 0.316 µM) | IC50 (second compound 1 µM) | IC50 (second compound 3.16 µM)
inactive: viability, T/C [31] 88.1% | viability, T/C [32] 94.8% | viability, T/C [33] 85.6% | viability, T/C [34] 89.7% | viability, T/C [35] 89.8% | viability, T/C [36] 70.3% | viability, T/C [37] 91.6% | viability, T/C [38] 89.3% | viability, T/C [39] 88.8% | viability, T/C [40] 84.7% | viability, T/C [41] 87.9% | viability, T/C [42] 65.6% | viability, T/C [43] 84.2% | viability, T/C [44] 80.6% | viability, T/C [45] 80.6% | viability, T/C [46] 88.2% | viability, T/C [47] 85.5% | viability, T/C [48] 61.5% | viability, T/C [49] 61.6% | viability, T/C [50] 67.3% | viability, T/C [51] 69.2% | viability, T/C [52] 66% | viability, T/C [53] 68.6% | viability, T/C [54] 54.2% | viability, T/C [55] 44% | viability, T/C [56] 47% | viability, T/C [57] 44.9% | viability, T/C [58] 44.5% | viability, T/C [59] 43.4% | viability, T/C [60] 37.2%
< 31.6 nM: IC50 (second compound 10 µM)
